Laboratory results published in article PMC10180054, “Design, Synthesis and Biological Evaluation of Novel Pleuromutilin Derivatives Containing 6-Chloro-1-R-1H-pyrazolo[3,4-d]pyrimidine-4-amino Side Chain” (Molecules, 2023).
In brackets after ≈: the same amount, converted by molar mass.

Experiments:
[1] = test system: MRSA ATCC 43300; experiment: MIC/MBC by broth dilution (CLSI); type: cell-based, Staphylococcus aureus; details: Staphylococcus aureus; for MBC: MRSA ATCC 43300, 99.9% of the bacteria killed; for MIC: MRSA ATCC 43300, broth dilution, 24 h, 37 °C, read-out: MIC
Protocol: (§1) The in vitro antimicrobial activity of the pleuromutilin derivatives was assessed against MRSA ATCC 43300, S. aureus ATCC 29213, S. aureus 144 and S. aureus AD3 according to the Clinical and Laboratory Standards Institute (CLSI). Tiamulin was used as a positive control drug. The results were summarized as the minimum inhibitory concentration (MIC) and the minimum bactericidal concentration (MBC) in Table 1 and Table 2. In addition, MIC results for the pleuromutilin derivatives against four Gram-negative bacteria are supplied in Tables S2 and S3.
(§2) The MIC and MBC values of the synthesized novel pleuromutilin derivatives against MRSA ATCC 43300, S. aureus ATCC 29213, S. aureus 144 and S. aureus AD3 were measured. Tiamulin was used as a positive control drug. The MIC and MBC values were manipulated by broth dilution according to the Clinical and Laboratory Standards (CLSI). Each compound to be measured was dissolved in a solution of 95% deionized water, 2.5% dimethyl sulfoxide (DMSO) and 2.5% Tween-80 with a concentration of 1280 µg/mL. Subsequently, serial twofold dilutions were made in a concentration range from 64 µg/mL to 0.0625 µg/mL. The working bacterial suspension was inoculated into each well, which provided the final inoculum density of 5 × 10^5 CFU/mL. Three parallel experiments were performed for each compound.
(§3) Overall, 25 µL of the bacterial solution from the wells with no obvious bacterial growth was inoculated on MH agar plates. Then, the inoculated MH agar plates were further cultured at 37 °C for 24 h.

[2] = test system: S. aureus 144; experiment: MIC/MBC by broth dilution (CLSI); type: cell-based; details: Staphylococcus aureus; S. aureus 144 (clinical strain)
Protocol: as §1, §2, §3

[3] = test system: S. aureus AD3; experiment: MIC/MBC by broth dilution (CLSI); type: cell-based; details: Staphylococcus aureus, S. aureus AD3 (clinical strain)
Protocol: as §1, §2, §3

[4] = test system: S. aureus ATCC 29213; experiment: MIC/MBC by broth dilution (CLSI); type: cell-based; details: Staphylococcus aureus; for MBC: S. aureus ATCC 29213; for MIC: S. aureus ATCC 29213, broth dilution, 24 h, 37 °C
Protocol: as §1, §2, §3

MIC [1] [µg/mL] | MIC [2] [µg/mL] | MIC [3] [µg/mL] | MIC ([4]; ATCC29213) [µg/mL] | melting point [°C] | MIC ([3]; 24 h) [µg/mL] | SMILES | MBC [1] [µg/mL] | MBC [2] [µg/mL] | MBC [3] [µg/mL] | MBC ([4]; ATCC29213) [µg/mL] | MBC ([3]; 24 h) [µg/mL] | MBC ([4]; ATCC29213, 24 h) [µg/mL]
0.5 (≈ 0.626 µM) | 1 (≈ 1.25 µM) | 0.25 (≈ 0.313 µM) | 0.5 (≈ 0.626 µM) | 144 to 147 |  | C=C[C@]1(C)C[C@@H](OC(=O)CSc2ccc(Nc3nc(Cl)nc4c3cnn4-c3ccc(OC(F)(F)F)cc3)cc2)[C@]2(C)[C@H](C)CC[C@]3(CCC(=O)[C@H]32)[C@@H](C)[C@@H]1O [Compound 23c, 22-[4-(6-Chloro-1-(4-(yrifluoromethoxy)Phenyl)-1H-pyrazolo[3,4-d]pyrimidine-4-yl)amino-Phenylsulfanyl]-22-deoxypleuromutilin] | 1 (≈ 1.25 µM) | 2 (≈ 2.51 µM) | 1 (≈ 1.25 µM) | 1 (≈ 1.25 µM) |  | 
> 64 | > 64 | > 64 | > 64 |  |  | C=C[C@]1(C)C[C@@H](OC(=O)CNc2nc(Cl)nc3c2cnn3-c2ccc(OC(F)(F)F)cc2)[C@]2(C)[C@H](C)CC[C@]3(CCC(=O)[C@H]32)[C@@H](C)[C@@H]1O [Compound 23b, 22-[(6-Chloro-1-(4-(trifluoromethoxy)Phenyl)-1H-pyrazolo[3,4-d]pyrimidine-4-yl)amino]-22-deoxypleuromutilin] |  |  |  |  |  | 
> 64 | > 64 | > 64 | > 64 | 131 to 135 |  | C=C[C@]1(C)C[C@@H](OC(=O)CNc2nc(Cl)nc3c2cnn3-c2cccc([N+](=O)[O-])c2)[C@]2(C)[C@H](C)CC[C@]3(CCC(=O)[C@H]32)[C@@H](C)[C@@H]1O [Compound 27b, 22-[(6-Chloro-1-(3-nitrophenyl)-1H-pyrazolo[3,4-d]pyrimidine-4-yl)amino]-22-deoxypleuromutilin] |  |  |  |  |  | 
> 64 | > 64 | > 64 | > 64 | 123 to 127 |  | C=C[C@]1(C)C[C@@H](OC(=O)CSc2ccc(Nc3nc(Cl)nc4c3cnn4-c3ccccc3F)cc2)[C@]2(C)[C@H](C)CC[C@]3(CCC(=O)[C@H]32)[C@@H](C)[C@@H]1O [Compound 18c, 22-[4-(6-Chloro-1-(2-fluorophenyl)-1H-pyrazolo[3,4-d]pyrimidine-4-yl)amino-Phenylsulfanyl]-22-deoxypleuromutilin] |  |  |  |  |  | 
> 64 | > 64 | > 64 | > 64 | 92 to 95 |  | C=C[C@]1(C)C[C@@H](OC(=O)CSc2ccc(Nc3nc(Cl)nc4c3cnn4-c3cc(C)cc(C)c3)cc2)[C@]2(C)[C@H](C)CC[C@]3(CCC(=O)[C@H]32)[C@@H](C)[C@@H]1O [Compound 15c, 22-[4-(6-Chloro-1-(3,5-dimethylphenyl)-1H-pyrazolo[3,4-d]pyrimidine-4-yl)amino-Phenylsulfanyl]-22-deoxypleuromutilin] |  |  |  |  |  | 
> 64 | > 64 | > 64 | > 64 | 137 to 139 |  | C=C[C@]1(C)C[C@@H](OC(=O)CSc2ccc(Nc3nc(Cl)nc4c3cnn4-c3cccc([N+](=O)[O-])c3)cc2)[C@]2(C)[C@H](C)CC[C@]3(CCC(=O)[C@H]32)[C@@H](C)[C@@H]1O [Compound 27c, 22-[4-(6-Chloro-1-(3-nitrophenyl)-1H-pyrazolo[3,4-d]pyrimidine-4-yl)amino-Phenylsulfanyl]-22-deoxypleuromutilin] |  |  |  |  |  | 
0.0015 (≈ 0.00309 µM) | 0.003 (≈ 0.00618 µM) |  | 0.0015 (≈ 0.00309 µM) |  | 0.0015 (≈ 0.00309 µM) | C=CC1(C)CC(OC(=O)CSc2ccc(N)cc2)C2(C)C(C)CCC3(CCC(=O)C32)C(C)C1O (centres unmarked) [Compound 32, 22-(4-Amino-phenylsulfanyl)deoxypleuromutilin] |  |  |  |  |  | 

Second part, the compound before the results:

SMILES | MIC [1] [µg/mL] | MIC [2] [µg/mL] | MIC [3] [µg/mL] | MIC ([4]; ATCC29213) [µg/mL] | melting point [°C] | MIC ([3]; 24 h) [µg/mL] | MBC [1] [µg/mL] | MBC [2] [µg/mL] | MBC [3] [µg/mL] | MBC ([4]; ATCC29213) [µg/mL] | MBC ([3]; 24 h) [µg/mL] | MBC ([4]; ATCC29213, 24 h) [µg/mL]
C=C[C@]1(C)C[C@@H](OC(=O)CNc2nc(Cl)nc3c2cnn3-c2ccc(F)c(F)c2)[C@]2(C)[C@H](C)CC[C@]3(CCC(=O)[C@H]32)[C@@H](C)[C@@H]1O [Compound 22b, 22-[(6-Chloro-1-(3,4-difluorophenyl)-1H-pyrazolo[3,4-d]pyrimidine-4-yl)amino]-22-deoxypleuromutilin] | 16 (≈ 24.9 µM) | 16 (≈ 24.9 µM) |  | 8 (≈ 12.5 µM) | 130 to 132 | 8 (≈ 12.5 µM) | > 64 | > 64 |  |  | > 64 | > 64
C=C[C@]1(C)C[C@@H](OC(=O)CSc2ccc(Nc3nc(Cl)nc4c3cnn4-c3cccc(OC)c3)cc2)[C@]2(C)[C@H](C)CC[C@]3(CCC(=O)[C@H]32)[C@@H](C)[C@@H]1O [Compound 17c, 22-[4-(6-Chloro-1-(3-methoxyphenyl)-1H-pyrazolo[3,4-d]pyrimidine-4-yl)amino-Phenylsulfanyl]-22-deoxypleuromutilin] | > 64 | > 64 | > 64 | > 64 | 97 to 102 |  |  |  |  |  |  | 
C=C[C@]1(C)C[C@@H](OC(=O)CSc2ccc(Nc3nc(Cl)nc4c3cnn4-c3ccc4ccccc4c3)cc2)[C@]2(C)[C@H](C)CC[C@]3(CCC(=O)[C@H]32)[C@@H](C)[C@@H]1O [Compound 28c, 22-[4-(6-Chloro-1-(naphthalen-2-yl)-1H-pyrazolo[3,4-d]pyrimidine-4-yl-yl)amino-Phenylsulfanyl]-22-deoxypleuromutilin] | > 64 | > 64 | > 64 | > 64 | 115 to 118 |  |  |  |  |  |  | 
C=C[C@]1(C)C[C@@H](OC(=O)CNc2nc(Cl)nc3c2cnn3-c2ccc(F)cc2F)[C@]2(C)[C@H](C)CC[C@]3(CCC(=O)[C@H]32)[C@@H](C)[C@@H]1O [Compound 20b, 22-[(6-Chloro-1-(2,4-difluorophenyl)-1H-pyrazolo[3,4-d]pyrimidine-4-yl)amino]-22-deoxypleuromutilin] | > 64 | > 64 | > 64 | > 64 | 123 to 125 |  |  |  |  |  |  | 
C=C[C@]1(C)C[C@@H](OC(=O)CNc2nc(Cl)nc3c2cnn3-c2ccc3ccccc3c2)[C@]2(C)[C@H](C)CC[C@]3(CCC(=O)[C@H]32)[C@@H](C)[C@@H]1O [Compound 28b, 22-[(6-Chloro-1-(naphthalen-2-yl)-1H-pyrazolo[3,4-d]pyrimidine-4-yl)amino]-22-deoxypleuromutilin] | 32 (≈ 48.8 µM) | 32 (≈ 48.8 µM) | 32 (≈ 48.8 µM) | 32 (≈ 48.8 µM) | 123 to 125 |  | > 64 | > 64 | > 64 | > 64 |  | 
C=C[C@]1(C)C[C@@H](OC(=O)CSc2ccc(Nc3nc(Cl)nc4c3cnn4-c3ccc(Cl)cc3)cc2)[C@]2(C)[C@H](C)CC[C@]3(CCC(=O)[C@H]32)[C@@H](C)[C@@H]1O [Compound 25c, 22-[4-(6-Chloro-1-(4-chlorophenyl)-1H-pyrazolo[3,4-d]pyrimidine-4-yl)amino-Phenylsulfanyl]-22-deoxypleuromutilin] | 8 (≈ 10.7 µM) | > 64 | 8 (≈ 10.7 µM) | 16 (≈ 21.4 µM) | 124 to 129 |  | 16 (≈ 21.4 µM) |  | 32 (≈ 42.7 µM) | > 64 |  | 
C=C[C@]1(C)C[C@@H](OC(=O)CNc2nc(Cl)nc3c2cnn3-c2ccc(C)cc2)[C@]2(C)[C@H](C)CC[C@]3(CCC(=O)[C@H]32)[C@@H](C)[C@@H]1O [Compound 13b, 22-[(6-Chloro-1-(4-methylphenyl)-1H-pyrazolo[3,4-d]pyrimidine-4-yl)amino]-22-deoxypleuromutilin] | 16 (≈ 25.8 µM) | 32 (≈ 51.6 µM) | 16 (≈ 25.8 µM) | 32 (≈ 51.6 µM) |  |  | 32 (≈ 51.6 µM) | > 64 | > 64 | > 64 |  | 
